Measurements taken from paper PMC5974752, “Bax/Tubulin/Epithelial-Mesenchymal Pathways Determine the Efficacy of Silybin Analog HM015k in Colorectal Cancer Cell Growth and Metastasis” (Frontiers in Pharmacology, 2018).

Key:
HCT116 [1] = experiment: MTT assay; assay type: cell-based, human; settings: for IC50: Homo sapiens, HCT-116, MTT, 72 h incubation, mean ± SD of three experiments, read-out: IC50 ± SD, Colon HCT116
Method: (§1) The 3-(4,5-dimethylthiazol-2-yl)-2,5-diphenyltetrazolium bromide (MTT) assay was used to determine the sensitivity of the different CRC cells to the novel silybin derivatives (Hussein et al., [2017]; Manivannan et al., [2017]). The cells were seeded at a density of 4,000–5,000 cells/well in 96 well plates and incubated with serial dilutions of the compounds (0, 0.1, 0.3, 1, 3, 10, 30, and 100 μM). The MTT dye (4 mg/ml) was added after 72 h of incubation and incubated with the cells for an additional 4 h at 37°C. Following incubation, the media was discarded and the formazan crystals were dissolved by adding 100 μL of DMSO to each well. A DTX 880 multimode detector (Beckman Coulter Life, Indianapolis IN, USA) was used to determine the absorbance readings at a wavelength of 570 nm. The IC50 values were determined based on 3 separate experiments, with each experiment done in triplicate. The selectivity of the compounds was determined by comparing their cytotoxicity for CRC to normal epithelial cell lines (CHO, and CRL1459).

LOVO = experiment: MTT assay; assay type: cell-based; settings: Homo sapiens, 72 h incubation, mean ± SD of three experiments, read-out: IC50 ± SD, Colon LOVO
Method: as §1

S1 = experiment: MTT assay; assay type: cell-based; settings: Homo sapiens, 72 h incubation, mean ± SD of three experiments, read-out: IC50 ± SD, Colon S1
Method: as §1

CRL-1459 = experiment: MTT assay, normal cell line; assay type: cell-based; settings: 72 h incubation, mean ± SD of three experiments
Method: as §1

CHO = experiment: MTT assay, normal cell line; assay type: cell-based, Chinese hamster; settings: Cricetulus griseus, 72 h incubation, mean ± SD of three experiments
Method: as §1

[2] = test system: CRC cell lines (HCT116, LOVO, and S1); experiment: MTT assay, CRC cell lines together; assay type: cell-based, human
Method: as §1

HCT116 cells [3] = experiment: CellTiter-Glo luminescent assay (ATP content); assay type: cell-based; settings: Homo sapiens, HCT-116, data not shown, read-out: IC50, ATP depletion
Method: Subsequently, we conducted experiments to determine if compound 15k produced a time-dependent effect on cell death. […] The HCT116 cells had intense fluorescence over time compared to the cells incubated with vehicle, with a significant difference in the number of dead cells after 24 h of incubation with 2 μM of 15k. […] The cytotoxicity of 15k and 15j in HCT116 cells were further determined using a more homogeneous CellTiter-Glo® luminescent cell based assay that measures the ATP content in the metabolically active cells.

HCT116 cells [4] = experiment: Colony formation assay; assay type: cell-based, human; settings: 2 and 4 μM, 12 h incubation, colonies 10–14 days, vs vehicle control
Method: In this assay, HCT116 cells were seeded in 6 well plates at a density of 250,000 cells/plate and allowed to grow overnight. Compounds 15j and 15k (0, 2 or 4 μM) were added the following day. After 12 h of incubation, the medium was discarded and cells were trypsinized with 0.25% trypsin, 2.21 mM EDTA, 1X, harvested, counted and reseeded in 6 well plates at a low density (500 cell/well). The cells were allowed to form colonies for 10–14 days at 37°C, with the medium being changed every other day. Subsequently, methanol was used to fix the colonies formed in each plate, followed by dyeing the colonies with 0.1% crystal violet dye for 30 min. Finally, colonies were viewed and counted under an EVOS microscope (Themo Fisher Scientific, Wayne, MI, USA). The colony formation rate equation was applied for each compound: Colony formation rate = number of colonies/number of seeded cells × 100 %.

HCT116 [5] = experiment: Cell cycle analysis (PI, flow cytometry); assay type: cell-based, human; settings: 0, 2 or 4 μM, 12 h, data not shown
Method: Cell cycle analysis was performed as described previously (Pozarowski and Darzynkiewicz, [2004]). Briefly, a 6 well plate was used for the seeding of HCT116 at 1 × 10^6 cells/well. The next day, 15j and 15k (0, 2, or 4 μM) were added and incubated with the seeded cells. After 12 h, the cells were trypsinzed with 0.25% trypsin, 2.21 mM EDTA, 1X, washed, counted and resuspended in 0.5 ml of ice cold PBS. PI stain was added to each suspension for at least 15 min to stain the DNA. The cell cycle analysis and cell distribution for each phase was measured using a BD Accuri™ C6 flow cytometer (BD Biosciences, Becton-Dickinson, San Jose, CA, USA) and analyzed using FCS express 5 plus De Novo software (Glendale, CA, USA).

HCT116 cells [6] = experiment: MitoTracker Red / Alexa Fluor 488 annexin V flow cytometry; assay type: cell-based, human; settings: 2 or 4 μM, p < 0.001 vs control, data not shown
Method: The mitochondrial membrane potential and the induction of apoptosis were analyzed in HCT116 cells using the MitoTracker Red and Alexa Fluor 488 annexin V kits for flow cytometry as previously described (Karthikeyan et al., [2015]). Six well plates were used for seeding of cells, followed by incubation with 15j or 15k (0, 1, 2, and 4μM) for overnight. Subsequently, the cells were harvested, counted and 4 μl of a 10μM working solution of MitoTracker Red was added to each 1 ml cell suspension, followed by 30 min of incubation at 37°C with 5% CO2. The cells were resuspended in 100 μl of annexin binding buffer and 5 μl of Alexa Fluor 488 annexin V was added to the suspension and incubated for 15 min. Finally, 400 μl of annexin-binding buffer was added and the stained cells were detected by flow cytometry. The fluorescence emission at 530 and 585 nm was measured using a BD Accuri™ C6 flow cytometer and analyzed using FCS express 5 plus De Novo software.

LOVO cells [7] = experiment: Wound healing assay; assay type: cell-based, human; settings: 2 and 4 μM, 24 h and 48 h, vs vehicle
Method: In brief, the metastatic CRC cells (LOVO) were seeded in 6 well plates and allowed to grow as a monolayer until they reached 100% confluence. Upon confluence, 200 μl sterile tips were used to create a wound by gentle scratching of the complete cell monolayer. Sterile PBS was used to wash the cells several times to remove any floating cells. Different concentrations of the test compound were prepared in the culture media and added immediately after wound formation. The closure of the wound was observed by taking pictures at different time points by an EVOS microscope. Finally, the area of the wounds at different time points was calculated using Image J software (NIH, Bethesda, Maryland, USA).

LOVO cells [8] = experiment: Transwell migration assay; assay type: cell-based, human; settings: 2 and 4 μM, 24 h, vs vehicle
Method: (§2) The effect of compound 15k on the invasiveness of LOVO was tested using 24 trans-well inserts with an […]. The addition of the insert to the well forms two chambers (upper and lower), where the upper chamber was used to grow the cells on the porous membrane. The lower chamber was filled with 600 μl of cell-free DMEM medium. A 200 μl of cell suspension was added to each insert and allowed to attach for 1 h. The test compound was added in different concentrations and incubated with the cells for 24 h. […] Finally, the remaining migrated cells were fixed by methanol and dyed with 0.1% crystal violet dye and observed with an EVOS microscope. The number of migrated cells was counted and compared between the treated and control cells.

COLO 205 cell line = experiment: Transwell migration assay; assay type: cell-based; settings: 2 and 4 μM, data not shown
Method: as §2
The development of cancer metastasis is dependent on the migration and invasive properties of cancerous cells (van Zijl et al., [2011]). The wound healing and transwell migration assays were used with LOVO cells, as a model for metastatic CRC as it is characterized by a high level of invasiveness (Fan et al., [2015]). The wound healing assay is a well-established method to detect and analyze cell migration potential (Liang et al., [2007]). […] The effect of compound 15k on the invasiveness of COLO 205 cell line was also measured using trans-well migration assay. […] 15j also reversed cell migration and metastasis at different concentrations.

| SMILES | IC50 (HCT116 [1]) [µM] | IC50 (LOVO) [µM] | IC50 (HCT116 cells [3]) [µM] | IC50 (S1) [µM] | IC50 (CRL-1459) [µM] | IC50 (CHO) [µM] | fold more efficacious than compound 15c (HCT116 [1]; from MTT IC50, cell line not given) [fold] | fold more efficacious than compound 15c in LOVO and S1 cells ([2]; from MTT IC50, LOVO and S1) | selectivity, CRC cells compared to normal cells ([2]; MTT, vs CRL1459 and CHO) | colony formation rate (HCT116 cells [4]) | effect on the cell cycle (HCT116 [5]) | mitochondrial membrane potential and apoptosis (HCT116 cells [6]) | cell migration, wound closure (LOVO cells [7]) | number of cells migrated through transwell (LOVO cells [8]) | trans-well migration (COLO 205 cell line) |
| --- | --- | --- | --- | --- | --- | --- | --- | --- | --- | --- | --- | --- | --- | --- | --- |
| O=C(/C=C/c1cccc(OCc2ccccc2)c1)c1ccccc1 [Compound 15a] | 6.4 ± 0.2 | 11.5 ± 0.8 |  | 2.8 ± 0.5 | 7.8 ± 1 | 22 ± 1.7 |  |  |  |  |  |  |  |  |  |
| O=C(/C=C/c1cccc(OCc2ccccc2)c1)c1ccc(Cl)cc1 [Compound 15b] | 12.7 ± 1.4 | 36.5 ± 1.5 |  | 9.5 ± 1.4 | 12.8 ± 2.1 | 43.6 ± 1.9 |  |  |  |  |  |  |  |  |  |
| O=C(/C=C/c1cccc(OCc2ccccc2)c1)c1ccc(Cl)cc1Cl [Compound 15c] | 9 ± 1.1 | 6.7 ± 2.2 |  | 6.9 ± 1.1 | 7.8 ± 1.1 | 27.5 ± 1.2 |  |  |  |  |  |  |  |  |  |
| O=C(/C=C/c1cccc(OCc2ccccc2)c1)c1ccc([N+](=O)[O-])cc1 [Compound 15d] | 22.7 ± 4.2 | 36.3 ± 9.1 |  | 9 ± 1.2 | 26 ± 1.6 | 82.4 ± 1.7 |  |  |  |  |  |  |  |  |  |
| Cc1ccc(C(=O)/C=C/c2cccc(OCc3ccccc3)c2)cc1 [Compound 15e] | 16.5 ± 3.1 | 36.5 ± 1.3 |  | 22.4 ± 1.9 | 19.8 ± 1.3 | 26.4 ± 0.9 |  |  |  |  |  |  |  |  |  |
| COc1ccc(C(=O)/C=C/c2cccc(OCc3ccccc3)c2)cc1 [Compound 15f] | 44.7 ± 3.1 | 11.8 ± 3.5 |  | 23.4 ± 2.4 | 25.4 ± 1.9 | 22.9 ± 0.3 |  |  |  |  |  |  |  |  |  |

The next lines start with results.

| IC50 (HCT116 [1]) [µM] | IC50 (LOVO) [µM] | IC50 (HCT116 cells [3]) [µM] | SMILES | IC50 (S1) [µM] | IC50 (CRL-1459) [µM] | IC50 (CHO) [µM] | fold more efficacious than compound 15c (HCT116 [1]; from MTT IC50, cell line not given) [fold] | fold more efficacious than compound 15c in LOVO and S1 cells ([2]; from MTT IC50, LOVO and S1) | selectivity, CRC cells compared to normal cells ([2]; MTT, vs CRL1459 and CHO) | colony formation rate (HCT116 cells [4]) | effect on the cell cycle (HCT116 [5]) | mitochondrial membrane potential and apoptosis (HCT116 cells [6]) | cell migration, wound closure (LOVO cells [7]) | number of cells migrated through transwell (LOVO cells [8]) | trans-well migration (COLO 205 cell line) |
| --- | --- | --- | --- | --- | --- | --- | --- | --- | --- | --- | --- | --- | --- | --- | --- |
| 0.4 | 2.4 ± 0.4 |  | O=C(/C=C/c1cccc(OCc2ccccc2)c1)c1ccc(Cl)c(Cl)c1Cl [Compound 15g] | 2.3 ± 0.7 | 2.5 ± 0.2 | 8.6 ± 0.9 | 22 | three-fold |  |  |  |  |  |  |  |
| 0.7 ± 0.2 | 1.9 ± 0.3 |  | O=C(/C=C/c1cccc(OCc2ccccc2)c1)c1ccccc1Br [Compound 15h] | 1.9 ± 0.5 | 2.4 ± 0.9 | 9.1 ± 0.2 |  |  |  |  |  |  |  |  |  |
| 1.9 ± 0.1 | 7.5 ± 0.9 |  | O=C(/C=C/c1cccc(OCc2ccccc2)c1)c1cccc(Br)c1 [Compound 15i] | 6.2 ± 1.9 | 7.2 ± 0.9 | 9.2 ± 0.4 |  |  |  |  |  |  |  |  |  |
| 1 ± 0.2 | 1.8 ± 0.4 | 0.69 | O=C(/C=C/c1cccc(OCc2ccccc2)c1)c1ccc(Br)cc1 [Compound 15j] | 2.4 ± 0.7 | 5.4 ± 1 | 9 ± 0.5 |  |  | selectively cytotoxic | significantly decreased colony formation rate | significantly increased the level of cells in the sub G1 phase | significant reduction in membrane potential and increase in the number of cells undergoing apoptosis | migrated significantly slower | significantly reduced the trans-well migration | significantly reduced the trans-well migration |
